Measurements published in US5157052A, “Method for inhibiting IgE production” (priority 1990, dated 1992).

Tests used:
IgE = assay: Serum IgE response induced by FF1-4D5 + H∂A1 anti-IgD antibodies (ELISA, Assay A / Assay F); assay type: in vivo, mouse (Balb/c female); settings: for IgE ± SD: Table 9, 20 μg IP days 3 and 4
Summary of the method: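 Transient IgE response induced in female Balb/c mice (10–20 weeks) by a day-0 i.v. or s.c. injection of 100 μg each of anti-IgD FF1-4D5 and H.δA1. Serum IgE measured by sandwich ELISA (B1E3 capture, biotinylated R1E4 detection, avidin-biotin-HRP/ABTS), quantified against an IgE standard curve corrected for serum dilution.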

[1] = test system: leukocyte membrane proteins; assay: Cell surface density or distribution of leukocyte membrane proteins, overall; assay type: in vivo, mouse (Balb/c female)

CCCCC(C)(O)C/C=C/[C@H]1[C@H](O)CC(=O)[C@@H]1C/C=C\CCCC(=O)OC (mixture of isomers) [(±) methyl 11α,16-dihydroxy-16-methyl-9-oxoprosta-5Z,13E-dien-1-oate]
Serum IgE ± SD (IgE; 0.5 μg IP 4x daily days 3 and 4, day 7): 7813 ± 588 ng/mL | Serum IgE ± SD (IgE; 0.5 μg IP 4x daily days 3 and 4, day 8): 5699 ± 322 ng/mL | Serum IgE ± SD (IgE; 0.5 μg IP 4x daily days 3 and 4, day 9): 6097 ± 249 ng/mL | Serum IgE ± SD (IgE; 0.5 μg IP 4x daily days 3 and 4, day 11): 2049 ± 1201 ng/mL | Serum IgE ± SD (IgE; 0.5 μg IP 4x daily days 3 and 4, day -1 baseline before treatment): 839 ± 44 ng/mL | Serum IgE ± SD (IgE; 1.0 μg IP 3x daily days 3 and 4, day 7 (control 8850)): 4974 ± 1232 ng/mL | Serum IgE ± SD (IgE; 1.0 μg IP 3x daily days 3 and 4, day 8 (control 7557)): 4595 ± 663 ng/mL | Serum IgE ± SD (IgE; 1.0 μg IP 3x daily days 3 and 4, day 9 (control 6458)): 4602 ± 771 ng/mL | Serum IgE ± SD (IgE; 1.0 μg IP 3x daily days 3 and 4, day 11 (control 1466)): 1326 ± 241 ng/mL | Serum IgE ± SD (IgE; 1.0 μg IP 3x daily days 3 and 4, day -1 baseline before treatment): 808 ± 17 ng/mL | Serum IgE ± SD (IgE; 1.0 μg IP 4x daily days 3 and 4, day 7): 5549 ± 1044 ng/mL | Serum IgE ± SD (IgE; 1.0 μg IP 4x daily days 3 and 4, day 8): 3051 ± 475 ng/mL | Serum IgE ± SD (IgE; 1.0 μg IP 4x daily days 3 and 4, day 9): 4383 ± 832 ng/mL | Serum IgE ± SD (IgE; 1.0 μg IP 4x daily days 3 and 4, day 11): 1506 ± 794 ng/mL | Serum IgE ± SD (IgE; 1.0 μg IP 4x daily days 3 and 4, day -1 baseline before treatment): 1197 ± 272 ng/mL | Serum IgE ± SD (IgE; 2.0 μg IP 3x daily days 3 and 4, day 7): 5598 ± 1875 ng/mL | Serum IgE ± SD (IgE; 2.0 μg IP 3x daily days 3 and 4, day 8): 3057 ± 331 ng/mL | Serum IgE ± SD (IgE; 2.0 μg IP 3x daily days 3 and 4, day 9): 3644 ± 1179 ng/mL | Serum IgE ± SD (IgE; 2.0 μg IP 3x daily days 3 and 4, day 11): 1279 ± 377 ng/mL | Serum IgE ± SD (IgE; 2.0 μg IP 3x daily days 3 and 4, day -1 baseline before treatment): 800 ± 10 ng/mL | Serum IgE ± SD (IgE; 2.0 μg IP 4x daily days 3 and 4, day 7): 5483 ± 717 ng/mL | Serum IgE ± SD (IgE; 2.0 μg IP 4x daily days 3 and 4, day 8): 3236 ± 599 ng/mL | Mean IgE ± SD (IgE; 2 μg IP 4x daily days 3 and 4, day 8 (controls 14083-15890)): 5401 ± 883 ng/mL | Serum IgE ± SD (IgE; 2.0 μg IP 4x daily days 3 and 4, day 9): 3987 ± 401 ng/mL | Serum IgE ± SD (IgE; 2.0 μg IP 4x daily days 3 and 4, day 11): 1925 ± 410 ng/mL | Mean IgE ± SD (IgE; 2 μg IP 4x daily days 3 and 4, day -1 baseline before treatment): 1294 ± 232 ng/mL | Serum IgE ± SD (IgE; 2.0 μg IP 4x daily days 3 and 4, day -1 baseline before treatment): 1019 ± 206 ng/mL | reduction in IgE production (IgE; 2 μg IP, day 8): about 62% | IgE inhibition regardless of day of administration (IgE; 5 μg IP): regardless on what day the prostaglandin was administered IgE production (synthesis) was inhibited | duration of IgE suppression (IgE; 5 μg IP): IgE production was still suppressed even after 11 days | optimal day of administration for inhibition of IgE (IgE; 5 μg IP): IgE production is inhibited optimally when administered on day 3 and 4 | Mean IgE ± SD (IgE; 5 μg IP 4x daily days 3 and 4, day 8 (controls 14083-15890)): 5076 ± 378 ng/mL | Mean IgE ± SD (IgE; 5 μg IP 4x daily days 3 and 4, day -1 baseline before treatment): 1292 ± 185 ng/mL | Serum IgE ± SD (IgE; 5 μg IP on days 1,2, day 8 (control 19549)): 9753 ± 4566 ng/mL | Serum IgE ± SD (IgE; 5 μg IP on days 1,2, day 9 (control 17498)): 10678 ± 8402 ng/mL | Serum IgE ± SD (IgE; 5 μg IP on days 1,2, day 11 (control 5317)): 2355 ± 709 ng/mL | Serum IgE ± SD (IgE; 5 μg IP on days 1,2, day -1 baseline before treatment): 1344 ± 135 ng/mL | Serum IgE ± SD (IgE; 5 μg IP on days 2,3, day 8 (control 19549)): 6233 ± 1948 ng/mL | Serum IgE ± SD (IgE; 5 μg IP on days 2,3, day 9 (control 17498)): 5328 ± 1811 ng/mL | Serum IgE ± SD (IgE; 5 μg IP on days 2,3, day 11 (control 5317)): 2139 ± 396 ng/mL | Serum IgE ± SD (IgE; 5 μg IP on days 2,3, day -1 baseline before treatment): 1293 ± 88 ng/mL | Serum IgE ± SD (IgE; 5 μg IP on days 3,4, day 8 (control 19549)): 4683 ± 1247 ng/mL | Serum IgE ± SD (IgE; 5 μg IP on days 3,4, day 9 (control 17498)): 4505 ± 1155 ng/mL | Serum IgE ± SD (IgE; 5 μg IP on days 3,4, day 11 (control 5317)): 1865 ± 361 ng/mL | Serum IgE ± SD (IgE; 5 μg IP on days 3,4, day -1 baseline before treatment): 1517 ± 166 ng/mL | Serum IgE ± SD (IgE; 5 μg IP on days 4,5, day 8 (control 19549)): 7969 ± 1821 ng/mL | Serum IgE ± SD (IgE; 5 μg IP on days 4,5, day 9 (control 17498)): 7145 ± 1763 ng/mL | Serum IgE ± SD (IgE; 5 μg IP on days 4,5, day 11 (control 5317)): 2316 ± 496 ng/mL | Serum IgE ± SD (IgE; 5 μg IP on days 4,5, day -1 baseline before treatment): 1644 ± 560 ng/mL | Serum IgE ± SD (IgE; 10.0 μg IP 3x daily days 3 and 4, day 7): 3223 ± 1717 ng/mL | Serum IgE ± SD (IgE; 10.0 μg IP 3x daily days 3 and 4, day 8): 1705 ± 859 ng/mL | Serum IgE ± SD (IgE; 10.0 μg IP 3x daily days 3 and 4, day 9): 1233 ± 601 ng/mL | Serum IgE ± SD (IgE; 10.0 μg IP 3x daily days 3 and 4, day 11): 1116 ± 276 ng/mL | Serum IgE ± SD (IgE; 10.0 μg IP 3x daily days 3 and 4, day -1 baseline before treatment): 849 ± 77 ng/mL | Serum IgE ± SD (IgE; 10.0 μg IP 4x daily days 3 and 4, day 7): 2092 ± 605 ng/mL | Serum IgE ± SD (IgE; 10.0 μg IP 4x daily days 3 and 4, day 8): 1884 ± 598 ng/mL | Mean IgE ± SD (IgE; 10 μg IP 4x daily days 3 and 4, day 8 (controls 14083-15890)): 2661 ± 504 ng/mL | Serum IgE ± SD (IgE; 10.0 μg IP 4x daily days 3 and 4, day 9): 1991 ± 834 ng/mL | Serum IgE ± SD (IgE; 10.0 μg IP 4x daily days 3 and 4, day 11): 1429 ± 361 ng/mL | Mean IgE ± SD (IgE; 10 μg IP 4x daily days 3 and 4, day -1 baseline before treatment): 1382 ± 135 ng/mL | Serum IgE ± SD (IgE; 10.0 μg IP 4x daily days 3 and 4, day -1 baseline before treatment): 1040 ± 211 ng/mL | Mean IgE ± SD (IgE; 20 μg IP 4x daily days 3 and 4, day 8 (controls 14083-15890)): 1608 ± 272 ng/mL | Mean IgE ± SD (IgE; 20 μg IP 4x daily days 3 and 4, day -1 baseline before treatment): 1308 ± 204 ng/mL | inhibition of de novo IgE synthesis in vivo (IgE; 20 μg days 3 and 4): de nouo IgE synthesis is inhibited | Serum IgE ± SD (IgE; 40 μg IP 3x daily days 3 and 4, day 7): 998 ± 146 ng/mL | Serum IgE ± SD (IgE; 40 μg IP 3x daily days 3 and 4, day 8): 1214 ± 181 ng/mL | Serum IgE ± SD (IgE; 40 μg IP 3x daily days 3 and 4, day 9): 1119 ± 135 ng/mL | Serum IgE ± SD (IgE; 40 μg IP 3x daily days 3 and 4, day 11): 1110 ± 249 ng/mL | Serum IgE ± SD (IgE; 40 μg IP 3x daily days 3 and 4, day -1 baseline before treatment): 822 ± 39 ng/mL | Serum IgE ± SD (IgE; 40.0 μg IP 4x daily days 3 and 4, day 7): 1037 ± 237 ng/mL | Serum IgE ± SD (IgE; 40.0 μg IP 4x daily days 3 and 4, day 8): 1152 ± 388 ng/mL | Mean IgE ± SD (IgE; 40 μg IP 4x daily days 3 and 4, day 8 (controls 14083-15890)): 1217 ± 344 ng/mL | Serum IgE ± SD (IgE; 40.0 μg IP 4x daily days 3 and 4, day 9): 870 ± 83 ng/mL | Serum IgE ± SD (IgE; 40.0 μg IP 4x daily days 3 and 4, day 11): 1028 ± 302 ng/mL | Mean IgE ± SD (IgE; 40 μg IP 4x daily days 3 and 4, day -1 baseline before treatment): 1114 ± 324 ng/mL | Serum IgE ± SD (IgE; 40.0 μg IP 4x daily days 3 and 4, day -1 baseline before treatment): 929 ± 97 ng/mL | inhibition of serum IgE synthesis (IgE; 2-40 μg IP days 3 and 4): reduces IgE production in a dose dependent manner | Mean IgE ± SD (IgE; Group D, unstimulated (PBS on day 0), 40 μg (text: 20 μg) IP days 3 and 4, day 8): 1026 ± 387 ng/mL | Mean IgE ± SD (IgE; Group D, unstimulated (PBS on day 0), 40 μg (text: 20 μg) IP days 3 and 4, day -1 baseline before treatment): 1289 ± 10 ng/mL | IgE inhibition, 3 vs 4 times a day (IgE; IP days 3 and 4): equally effective at inhibiting IgE production in a dose dependent manner whether administered 3 times a day or 4 times a day | dosage at which maximum inhibition is obtained (IgE; IP days 3 and 4): 40.0 µg | lowest dosage at which some inhibition is obtained (IgE; IP days 3 and 4): 1.0 µg | IgE ± SD (IgE; day 8 (control 3539)): 1206 ± 119 ng/mL | IgE ± SD (IgE; day -1 baseline before treatment): 1015 ± 70 ng/mL | cell surface density and distribution ([1]; anti-IgD stimulated mice, 20 μg days 3 and 4, day 7): identical cell surface density and distribution as the PBS treated group | cell surface density and distribution ([1]; unstimulated mice, 20 μg): does not effect basal cell surface density or distribution of leukocyte membrane proteins
